In one assay the target is CRBN/DDB1 (Homo sapiens (Human), UniProt Q96SW2). Kind of assay: IC50 measurements for binding to CRBN/DDB1 (HTRF). The following applies: His tagged CRBN+DDB, Cy5-labeled Thalidomide probe, one hour. The procedure, abridged:
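HTRF competition binding with 2 nM His-tagged CRBN-DDB1 complex, 60 nM Cy5-thalidomide probe and 0.4 nM anti-His Tb cryptate in 50 mM HEPES pH 7.5, 1 mM TCEP, 0.01% Brij-35, 50 mM NaCl, 0.1% BSA. Read after 1 h at room temperature; IC50 from four-parameter dose-response fit.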
On the technique in general: Time-resolved FRET reads energy transfer from a long-lived donor to a nearby acceptor.

The target of assay [1] is T1, IKZF2 (Homo sapiens (Human), UniProt Q96SW2+Q9UKS7). As to the kind of experiment: In vitro IKZF2 FACS Assay in Jurkat cells. It counts as cell-based. Conditions: 24 hrs; for DC50: half maximal degradation concentration; for Dmax: maximal degradation percentage. The protocol: In vitro IKZF2 FACS Assay
DC50, A: <1 nM; B: 1-10 nM; C: 10-100 nM; D: 100-1000 nM; E: >1000 nM. Dmax, A: >80%; B: 60-80%; C: 40-60%; D: 20-40%; E: <20%.

In assay [2] the target is T1, IKZF2. Kind of assay: In vitro IKZF2 HiBit Assay (HEK293T Flp-in-HiBiT cells). Format: cell-based. The following applies: HEK293T Flp-in-HiBiT cells, 6 hrs incubation; for DC50: read-out: IKZF2 HiBit DC50; for Dmax: HEK-293T, read-out: IKZF2 HiBit Dmax (%). The procedure, abridged: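 HEK293T Flp-in cells carrying an endogenous N-terminal HiBiT tag on IKZF2 were exposed to compound for 6 h at 0.1% DMSO. The dilution series was 11 doses at 3-fold, diluted from 1 mM. Nano-Glo HiBiT lytic luminescence, normalized to DMSO, gave DC50 for 50% degradation and Dmax across the concentration range, both reported in letter bins.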

The target in the next assay is IKZF1 (Homo sapiens (Human), UniProt Q13422+Q96SW2). Kind of assay: In vitro IKZF1 HiBit Assay (HEK293T Flp-in-HiBiT-IKZF1 stable cell line). Format: cell-based. The following applies: HEK293T Flp-in-HiBiT-IKZF1 stable cell line, 6 hrs incubation; for DC50: read-out: IKZF1 HiBit DC50; for Dmax: HEK-293T, read-out: IKZF1 HiBit Dmax (%). A digest of the protocol:
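HEK293T Flp-in cells carrying N-terminal HiBiT-tagged IKZF1 were exposed to compound (0.1% DMSO) for 6 h at 3000 cells/well. HiBiT luminescence was read after lytic LgBiT detection. DC50 and Dmax were taken from DMSO-normalized dose-response curves.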
For orientation: The HiBiT peptide binds its large partner to form an active luciferase.

CRBN/DDB1, sequence (Q96SW2 whole entry, species assumed): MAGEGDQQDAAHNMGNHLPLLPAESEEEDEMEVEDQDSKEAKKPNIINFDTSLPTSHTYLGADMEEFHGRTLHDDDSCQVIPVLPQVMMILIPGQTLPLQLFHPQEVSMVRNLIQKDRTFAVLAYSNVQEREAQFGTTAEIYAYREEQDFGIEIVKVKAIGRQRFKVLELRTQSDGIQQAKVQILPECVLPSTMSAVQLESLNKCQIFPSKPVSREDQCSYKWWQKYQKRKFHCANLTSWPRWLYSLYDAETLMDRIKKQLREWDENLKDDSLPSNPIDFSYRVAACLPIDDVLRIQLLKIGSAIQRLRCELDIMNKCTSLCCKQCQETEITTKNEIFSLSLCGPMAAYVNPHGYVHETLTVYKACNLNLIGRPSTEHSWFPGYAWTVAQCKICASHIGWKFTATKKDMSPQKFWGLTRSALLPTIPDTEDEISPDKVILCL
CRBN/DDB1, sequence (Q16531 whole entry partner, species assumed): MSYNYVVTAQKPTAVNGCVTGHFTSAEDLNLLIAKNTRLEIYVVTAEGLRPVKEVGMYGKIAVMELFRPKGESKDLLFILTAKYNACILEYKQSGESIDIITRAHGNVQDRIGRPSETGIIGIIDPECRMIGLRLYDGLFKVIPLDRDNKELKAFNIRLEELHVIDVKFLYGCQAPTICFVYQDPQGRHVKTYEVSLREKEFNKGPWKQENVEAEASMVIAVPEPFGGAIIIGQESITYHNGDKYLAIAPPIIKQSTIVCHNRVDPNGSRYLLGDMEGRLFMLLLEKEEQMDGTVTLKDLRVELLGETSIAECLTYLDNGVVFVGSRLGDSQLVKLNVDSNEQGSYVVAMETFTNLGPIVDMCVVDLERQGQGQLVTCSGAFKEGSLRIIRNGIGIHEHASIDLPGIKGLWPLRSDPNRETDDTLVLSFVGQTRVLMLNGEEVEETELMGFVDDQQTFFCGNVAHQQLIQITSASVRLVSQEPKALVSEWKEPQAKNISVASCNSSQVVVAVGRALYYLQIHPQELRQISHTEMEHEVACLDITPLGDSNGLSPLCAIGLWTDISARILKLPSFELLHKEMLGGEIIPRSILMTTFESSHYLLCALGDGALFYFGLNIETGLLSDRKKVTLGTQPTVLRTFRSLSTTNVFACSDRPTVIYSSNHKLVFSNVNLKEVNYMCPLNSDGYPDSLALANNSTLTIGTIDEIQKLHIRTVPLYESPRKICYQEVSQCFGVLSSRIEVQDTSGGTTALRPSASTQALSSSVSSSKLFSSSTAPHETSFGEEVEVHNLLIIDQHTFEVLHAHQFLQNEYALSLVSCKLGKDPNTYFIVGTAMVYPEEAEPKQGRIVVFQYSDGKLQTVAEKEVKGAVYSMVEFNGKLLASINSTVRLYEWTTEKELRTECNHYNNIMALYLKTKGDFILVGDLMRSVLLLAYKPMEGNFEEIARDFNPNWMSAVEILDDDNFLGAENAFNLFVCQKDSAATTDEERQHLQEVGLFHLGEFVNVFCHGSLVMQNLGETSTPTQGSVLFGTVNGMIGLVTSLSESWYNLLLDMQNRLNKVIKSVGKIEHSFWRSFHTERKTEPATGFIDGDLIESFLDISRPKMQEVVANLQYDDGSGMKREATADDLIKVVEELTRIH
IKZF1, sequence (Q13422 whole entry): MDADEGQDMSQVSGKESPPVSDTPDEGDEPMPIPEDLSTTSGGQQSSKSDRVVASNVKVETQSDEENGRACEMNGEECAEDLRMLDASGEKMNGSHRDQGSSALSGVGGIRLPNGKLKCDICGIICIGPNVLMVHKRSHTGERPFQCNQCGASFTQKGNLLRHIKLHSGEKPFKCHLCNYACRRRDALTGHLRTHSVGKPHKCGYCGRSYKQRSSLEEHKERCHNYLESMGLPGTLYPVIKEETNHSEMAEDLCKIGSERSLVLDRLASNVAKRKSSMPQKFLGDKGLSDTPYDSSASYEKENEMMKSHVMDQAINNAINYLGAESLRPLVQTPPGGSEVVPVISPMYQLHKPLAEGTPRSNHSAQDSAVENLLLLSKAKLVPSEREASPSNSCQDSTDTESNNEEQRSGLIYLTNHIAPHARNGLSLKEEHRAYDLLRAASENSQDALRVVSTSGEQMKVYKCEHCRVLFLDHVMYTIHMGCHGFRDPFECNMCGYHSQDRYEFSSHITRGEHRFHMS
IKZF1, sequence (Q96SW2 whole entry): as the sequence (Q96SW2 whole entry, species assumed) above
IKZF1, sequence (Q16531 2-1140 partner): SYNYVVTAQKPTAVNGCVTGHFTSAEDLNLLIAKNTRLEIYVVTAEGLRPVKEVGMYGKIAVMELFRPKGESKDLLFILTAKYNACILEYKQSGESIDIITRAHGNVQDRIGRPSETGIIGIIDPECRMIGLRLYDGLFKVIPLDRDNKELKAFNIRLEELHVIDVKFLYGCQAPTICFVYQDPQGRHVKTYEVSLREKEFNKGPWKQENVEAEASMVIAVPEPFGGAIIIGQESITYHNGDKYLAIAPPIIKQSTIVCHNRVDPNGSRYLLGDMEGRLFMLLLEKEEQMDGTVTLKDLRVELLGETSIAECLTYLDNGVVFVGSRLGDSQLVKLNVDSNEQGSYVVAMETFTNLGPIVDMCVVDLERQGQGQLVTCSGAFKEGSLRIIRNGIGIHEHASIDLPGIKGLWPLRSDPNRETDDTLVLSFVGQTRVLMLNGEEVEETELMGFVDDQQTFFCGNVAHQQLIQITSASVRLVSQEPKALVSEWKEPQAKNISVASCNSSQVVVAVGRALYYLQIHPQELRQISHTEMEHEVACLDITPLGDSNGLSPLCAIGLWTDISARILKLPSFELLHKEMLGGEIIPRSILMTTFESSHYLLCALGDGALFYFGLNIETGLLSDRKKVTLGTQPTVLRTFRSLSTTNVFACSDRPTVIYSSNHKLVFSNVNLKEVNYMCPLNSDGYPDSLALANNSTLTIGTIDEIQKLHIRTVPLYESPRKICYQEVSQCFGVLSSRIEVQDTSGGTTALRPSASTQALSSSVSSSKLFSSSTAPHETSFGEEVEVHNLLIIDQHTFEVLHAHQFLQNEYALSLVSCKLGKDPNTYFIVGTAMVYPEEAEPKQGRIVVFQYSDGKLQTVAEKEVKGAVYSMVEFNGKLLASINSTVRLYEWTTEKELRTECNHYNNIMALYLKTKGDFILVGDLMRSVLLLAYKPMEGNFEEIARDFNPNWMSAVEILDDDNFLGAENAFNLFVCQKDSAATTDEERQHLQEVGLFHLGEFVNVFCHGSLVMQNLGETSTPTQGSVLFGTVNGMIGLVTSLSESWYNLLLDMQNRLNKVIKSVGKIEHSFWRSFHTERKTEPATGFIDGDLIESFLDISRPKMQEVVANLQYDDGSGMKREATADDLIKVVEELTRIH
T1 sequence (Q9UKS7 whole entry): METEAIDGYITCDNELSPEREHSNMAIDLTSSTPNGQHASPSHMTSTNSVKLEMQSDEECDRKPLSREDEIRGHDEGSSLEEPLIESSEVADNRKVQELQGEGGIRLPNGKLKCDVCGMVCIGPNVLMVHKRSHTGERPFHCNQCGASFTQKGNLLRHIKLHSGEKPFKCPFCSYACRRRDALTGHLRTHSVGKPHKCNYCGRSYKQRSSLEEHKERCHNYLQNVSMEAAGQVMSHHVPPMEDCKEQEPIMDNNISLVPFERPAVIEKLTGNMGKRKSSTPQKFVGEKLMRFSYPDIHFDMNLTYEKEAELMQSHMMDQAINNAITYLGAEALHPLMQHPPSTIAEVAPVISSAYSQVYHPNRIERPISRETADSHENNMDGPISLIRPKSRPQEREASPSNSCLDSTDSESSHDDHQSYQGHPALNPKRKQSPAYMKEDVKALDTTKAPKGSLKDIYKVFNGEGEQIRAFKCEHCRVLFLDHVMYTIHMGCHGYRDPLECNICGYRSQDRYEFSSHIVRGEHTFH
T1 sequence (Q96SW2 whole entry): as the sequence (Q96SW2 whole entry, species assumed) above
T1 sequence (Q16531 2-1140 partner): as the sequence (Q16531 2-1140 partner) above

Regarding `O=C1CCC(N2Cc3cc(-c4cc(CN5CCCC5)c5ccn(C6COC6)c5n4)ccc3C2=O)C(=O)N1` (stereo not drawn) [Example 129, 3-(5-(1-(oxetan-3-yl)-4-(pyrrolidin-1-ylmethyl)-1H-pyrrolo[2,3-b]pyridin-6-yl)-1-oxoisoindolin-2-yl) piperidine-2,6-dione], on CRBN/DDB1, the IC50 (in general, the concentration at which inhibition is half-maximal) lay in the range of 100 to 500 nM. The DC50 was 1 to 10 nM at IKZF2 [1], below 1 nM on IKZF2 [2] and 10 to 100 nM on IKZF1. Moreover, the values for the Dmax at IKZF2 [1], at IKZF2 [2] and at IKZF1 were above 80%, above 80% and 20 to 40%, respectively.
With `O=C1CCC(N2Cc3cc(-c4cc(CN5CCC(O)C5)c5ccn(C6COC6)c5n4)ccc3C2=O)C(=O)N1` (stereo not drawn) [Example 158, 3-(5-(4-((3-hydroxypyrrolidin-1-yl)methyl)-1-(oxetan-3-yl)-1H-pyrrolo[2,3-b]pyridin-6-yl)-1-oxoisoindolin-2-yl) piperidine-2,6-dione], the IC50 at CRBN/DDB1 lay in the range of 100 to 500 nM. In addition, the DC50 on IKZF2 [1] was 10 to 100 nM; at IKZF2 [2], 10 to 100 nM; on IKZF1 it was above 10000 nM. Besides, the Dmax was above 80% at IKZF2 [1], 60 to 80% at IKZF2 [2] and below 20% at IKZF1.
As for `O=C1CCC(N2Cc3cc(-c4cc(CN5CC(F)C5)c5ccn(C6COC6)c5n4)ccc3C2=O)C(=O)N1` (stereo not drawn) [Example 161, 3-(5-(4-((3-fluoroazetidin-1-yl)methyl)-1-(oxetan-3-yl)-1H-pyrrolo[2,3-b]pyridin-6-yl)-1-oxoisoindolin-2-yl) piperidine-2,6-dione], the IC50 on CRBN/DDB1 lay in the range of 100 to 500 nM. For the same molecule, the DC50 on IKZF2 [1] was 10 to 100 nM; at IKZF2 [2] it was 1 to 10 nM; at IKZF1 it was above 10000 nM. Besides, the Dmax on IKZF2 [1] is 60 to 80%; at IKZF2 [2] it was 60 to 80%; on IKZF1 it was below 20%.
In the case of `O=C1CCC(N2Cc3cc(-c4cc(CN5CCC(O)CC5)c5ccn(C6COC6)c5n4)ccc3C2=O)C(=O)N1` (stereo not drawn) [Example 162, 3-(5-(4-((4-hydroxypiperidin-1-yl)methyl)-1-(oxetan-3-yl)-1H-pyrrolo[2,3-b]pyridin-6-yl)-1-oxoisoindolin-2-yl) piperidine-2,6-dione], the IC50 at CRBN/DDB1 was in the range of 100 to 500 nM. Moreover, the DC50 lay within 10 to 100 nM at IKZF2 [1], 10 to 100 nM on IKZF2 [2] and 100 to 1000 nM on IKZF1. For the same molecule, the Dmax is above 80% on IKZF2 [1], 60 to 80% at IKZF2 [2] and 20 to 40% at IKZF1.
The molecule `O=C1CCC(N2Cc3cc(-c4cc(CN5CCC(CO)CC5)c5ccn(C6COC6)c5n4)ccc3C2=O)C(=O)N1` (stereo not drawn) [Example 163, 3-(5-(4-((4-(hydroxymethyl)piperidin-1-yl)methyl)-1-(oxetan-3-yl)-1H-pyrrolo[2,3-b]pyridin-6-yl)-1-oxoisoindolin-2-yl) piperidine-2,6-dione] gave an IC50 on CRBN/DDB1 of 100 to 500 nM. Further, the DC50 lay in the range of 1 to 10 nM on IKZF2 [1], 1 to 10 nM on IKZF2 [2] and 100 to 1000 nM at IKZF1. Further, the Dmax is above 80% at IKZF2 [1], 60 to 80% at IKZF2 [2] and 20 to 40% at IKZF1.
At CRBN/DDB1, `O=C1CCC(N2Cc3cc(-c4cc(CN5CCC(CO)C5)c5ccn(C6COC6)c5n4)ccc3C2=O)C(=O)N1` (stereo not drawn) [Example 164, 3-(5-(4-((3-(hydroxymethyl)pyrrolidin-1-yl)methyl)-1-(oxetan-3-yl)-1H-pyrrolo[2,3-b]pyridin-6-yl)-1-oxoisoindolin-2-yl) piperidine-2,6-dione] returned an IC50 of 100 to 500 nM. The DC50 on IKZF2 [1] lay in the range of 10 to 100 nM; on IKZF2 [2] it was 10 to 100 nM; on IKZF1 it was 100 to 1000 nM. Also, the Dmax at IKZF2 [1] is above 80%; at IKZF2 [2], 60 to 80%; at IKZF1, 20 to 40%.
With `O=C1CCC(N2Cc3cc(-c4cc(CN5CCCC5)c5ccn(C6CCOC6)c5n4)ccc3C2=O)C(=O)N1` (stereo not drawn) [Example 170, 3-(1-oxo-5-(4-(pyrrolidin-1-ylmethyl)-1-(tetrahydrofuran-3-yl)-1H-pyrrolo[2,3-b]pyridin-6-yl)isoindolin-2-yl) piperidine-2,6-dione], on CRBN/DDB1, the IC50 was 500 to 1000 nM. Besides, the DC50 is 10 to 100 nM at IKZF2 [1], 1 to 10 nM at IKZF2 [2] and above 10000 nM at IKZF1. For the same molecule, the figures for the Dmax at IKZF2 [1], at IKZF2 [2] and on IKZF1 were 60 to 80%, 60 to 80% and below 20%, respectively.
As for `O=C1CCC(N2Cc3cc(-c4cc(CN5CCCC5)c5ccn(C6CS(=O)(=O)C6)c5n4)ccc3C2=O)C(=O)N1` (stereo not drawn) [Example 176, 3-(5-(1-(1,1-dioxidothietan-3-yl)-4-(pyrrolidin-1-ylmethyl)-1H-pyrrolo[2,3-b]pyridin-6-yl)-1-oxoisoindolin-2-yl) piperidine-2,6-dione], the IC50 on CRBN/DDB1 fell in the range of 500 to 1000 nM. The DC50 is 1 to 10 nM on IKZF2 [1], 1 to 10 nM on IKZF2 [2] and 10 to 100 nM at IKZF1. The values for the Dmax on IKZF2 [1], at IKZF2 [2] and at IKZF1 were 60 to 80%, above 80% and 20 to 40%, respectively.
On to `O=C1CCC(N2Cc3cc(-c4cc(CN5CC6COCC6C5)c5ccn(C6COC6)c5n4)ccc3C2=O)C(=O)N1` (stereo not drawn) [Example 186, 3-(5-(1-(oxetan-3-yl)-4-((tetrahydro-1H-furo[3,4-c]pyrrol-5 (3H)-yl)methyl)-1H-pyrrolo[2,3-b]pyridin-6-yl)-1-oxoisoindolin-2-yl) piperidine-2,6-dione], for which the IC50 at CRBN/DDB1 is 100 to 500 nM. Moreover, the DC50 is 1 to 10 nM on IKZF2 [1], 1 to 10 nM on IKZF2 [2] and above 10000 nM at IKZF1. Also, the Dmax is above 80% on IKZF2 [1], above 80% at IKZF2 [2] and below 20% on IKZF1.
On CRBN/DDB1, `O=C1CCC(N2Cc3cc(-c4cc(CN5CCC(F)CC5)c5ccn(C6COC6)c5n4)ccc3C2=O)C(=O)N1` (stereo not drawn) [Example 187, 3-(5-(4-((4-fluoropiperidin-1-yl)methyl)-1-(oxetan-3-yl)-1H-pyrrolo[2,3-b]pyridin-6-yl)-1-oxoisoindolin-2-yl) piperidine-2,6-dione] had an IC50 of 100 to 500 nM. Further, the DC50 was 1 to 10 nM on IKZF2 [1], 1 to 10 nM on IKZF2 [2] and above 10000 nM at IKZF1. Moreover, the Dmax on IKZF2 [1] is above 80%; on IKZF2 [2], above 80%; at IKZF1, below 20%.
Molecule `COC1CCN(Cc2cc(-c3ccc4c(c3)CN(C3CCC(=O)NC3=O)C4=O)nc3c2ccn3C2COC2)CC1` (stereo not drawn) [Example 189, 3-(5-(4-((4-methoxypiperidin-1-yl)methyl)-1-(oxetan-3-yl)-1H-pyrrolo[2,3-b]pyridin-6-yl)-1-oxoisoindolin-2-yl) piperidine-2,6-dione] yielded an IC50 at CRBN/DDB1 of 100 to 500 nM. For the same molecule, the DC50 on IKZF2 [1] was in the range of 1 to 10 nM; on IKZF2 [2], 1 to 10 nM; on IKZF1, 10 to 100 nM. For the same molecule, the Dmax is above 80% at IKZF2 [1], above 80% at IKZF2 [2] and 20 to 40% at IKZF1.
The molecule `CC(C)Nc1n[nH]c2c(CN3CCCC3)cc(-c3ccc4c(c3)CN(C3CCC(=O)NC3=O)C4=O)nc12` (stereo not drawn) [Example 193, 3-(5-(3-(isopropylamino)-7-(pyrrolidin-1-ylmethyl)-1H-pyrazolo[4,3-b]pyridin-5-yl)-1-oxoisoindolin-2-yl) piperidine-2,6-dione] gave an IC50 on CRBN/DDB1 of 1000 to 5000 nM. The DC50 on IKZF2 [1] fell in the range of 1 to 10 nM; at IKZF2 [2], 1 to 10 nM; at IKZF1 it was 10 to 100 nM. Also, the Dmax on IKZF2 [1] was 40 to 60%; at IKZF2 [2] it was above 80%; at IKZF1 it was 20 to 40%.

(Values after patent publication US20250214991A1 (Oncopia Therapeutics, Inc. d/b/a/ SK Life Science Labs, priority 2022, published 2025).)
